Read-outs that look alike come from different tables or passages of the source.
Assays:
[1] = tested on: Mycolicibacterium smegmatis DSM 43,465 (ATCC 607); assay: Antimycobacterial microdilution (resazurin) vs M. smegmatis; format: cell-based
[2] = tested on: Aspergillus fumigatus ATCC 204305; assay: Antifungal microdilution broth (EUCAST); format: cell-based; conditions: Aspergillus fumigatus, ATCC204305, read-out: MIC Aspergillus fumigatus
[3] = tested on: Lichtheimia corymbifera CCM 8077; assay: Antifungal microdilution broth (EUCAST); format: cell-based; conditions: Lichtheimia corymbifera, CCM8077, read-out: MIC Lichtheimia corymbifera
HepG2 cell line = assay: Cytotoxicity screening, CellTiter 96 assay; conditions: for IC50: Homo sapiens, HepG2, 24 h, read-out: IC50 HepG2
[4] = tested on: Pseudomonas aeruginosa CCM 3955 (ATCC 27853); assay: Antibacterial microdilution broth (EUCAST); format: cell-based; conditions: read-out: MIC Pseudomonas aeruginosa
[5] = tested on: Enterococcus faecalis CCM 4224 (ATCC 29212); assay: Antibacterial microdilution broth (EUCAST); format: cell-based; conditions: read-out: MIC Enterococcus faecalis
[6] = tested on: Mtb IZAK (MDR clinical isolate); assay: microbe, parasite or virus in culture; format: cell-based; conditions: Mycobacterium tuberculosis, read-out: MIC Mtb IZAK
[7] = tested on: Mycolicibacterium aurum DSM 43,999 (ATCC 23366); assay: Antimycobacterial microdilution (resazurin) vs M. aurum; format: cell-based; conditions: Middlebrook 7H9, resazurin, read-out: MIC M. aurum
[8] = tested on: Candida parapsilosis CCM 8260 (ATCC 22019); assay: Antifungal microdilution broth (EUCAST); format: cell-based; conditions: Lodderomyces parapsilosis, read-out: MIC Candida parapsilosis
[9] = tested on: Mycobacterium tuberculosis H37Ra ITM-M006710 (ATCC 9431); assay: Antimycobacterial microdilution (resazurin) vs Mtb H37Ra; format: cell-based; conditions: Middlebrook 7H9, resazurin, recalculated from µg/mL, read-out: MIC Mtb H37Ra
[10] = tested on: Mycobacterium avium DSM 44,156 (ATCC 25291); assay: Antimycobacterial microdilution (resazurin) vs M. avium; format: cell-based; conditions: Mycobacterium avium, Middlebrook 7H9, resazurin; read-out: MIC M. avium
[11] = tested on: Candida albicans CCM 8320 (ATCC 24433); assay: Antifungal microdilution broth (EUCAST); format: cell-based; conditions: Candida albicans, read-out: MIC Candida albicans
[12] = tested on: Mycobacterium kansasii DSM 44,162 (ATCC 12478); assay: Antimycobacterial microdilution (resazurin) vs M. kansasii; format: cell-based; conditions: Middlebrook 7H9, resazurin, read-out: MIC M. kansasii
[13] = tested on: Mycobacterium tuberculosis H37Rv CNCTC My 331/88 (ATCC 27294); assay: Microplate Alamar Blue assay vs Mtb H37Rv; format: cell-based; conditions: Mycobacterium tuberculosis, pH 6.6, MABA, Middlebrook 7H9 pH 6.6, recalculated from µg/mL; read-out: MIC Mtb H37Rv
[14] = tested on: Acinetobacter baumannii DSM 30007 (ATCC 19606); assay: Antibacterial microdilution broth (EUCAST); format: cell-based; conditions: read-out: MIC Acinetobacter baumannii
[15] = tested on: Mtb MATI (MDR clinical isolate); assay: microbe, parasite or virus in culture; format: cell-based; conditions: Mycobacterium tuberculosis, read-out: MIC Mtb MATI
[16] = tested on: methicillin-resistant Staphylococcus aureus subsp. aureus (MRSA) CCM 4750 (ATCC 43300); assay: microbe, parasite or virus in culture; format: cell-based; conditions: read-out: MIC Methicillin-resistant Staphylococcus aureus subsp. aureus
[17] = tested on: Candida tropicalis CCM 8264 (ATCC 750); assay: Antifungal microdilution broth (EUCAST); format: cell-based; conditions: read-out: MIC Candida tropicalis
[18] = tested on: Trichophyton interdigitale CCM 8377 (ATCC 9533); assay: Antifungal microdilution broth (EUCAST); format: cell-based; conditions: Trichophyton interdigitale, read-out: MIC Trichophyton interdigitale
[19] = tested on: Candida krusei CCM 8271 (ATCC 6258); assay: Antifungal microdilution broth (EUCAST); format: cell-based; conditions: Pichia kudriavzevii, read-out: MIC Candida krusei
[20] = tested on: Escherichia coli CCM 3954 (ATCC 25922); assay: Antibacterial microdilution broth (EUCAST); format: cell-based; conditions: Escherichia coli, read-out: MIC Escherichia coli
[21] = tested on: Staphylococcus epidermidis CCM 4418 (ATCC 12228); assay: Antibacterial microdilution broth (EUCAST); format: cell-based; conditions: read-out: MIC Staphylococcus epidermidis
[22] = tested on: Staphylococcus aureus subsp. aureus CCM 4223 (ATCC 29213); assay: Antibacterial microdilution broth (EUCAST); format: cell-based; conditions: read-out: MIC Staphylococcus aureus subsp. aureus
[23] = tested on: Aspergillus flavus CCM 8363; assay: Antifungal microdilution broth (EUCAST); format: cell-based; conditions: Aspergillus flavus, CCM8363, read-out: MIC Aspergillus flavus
[24] = tested on: Klebsiella pneumoniae CCM 4415 (ATCC 10031); assay: Antibacterial microdilution broth (EUCAST); format: cell-based; conditions: Klebsiella pneumoniae, read-out: MIC Klebsiella pneumoniae
[25] = Middlebrook 7H9, resazurin, read-out: MIC M. smeg.

O=C(Nc1ccc2c(c1)B(O)OC2)c1cncc(Cl)n1 [Compound 4, 6-chloro-N-(1-hydroxy-1,3-dihydrobenzo[c][1,2]oxaborol-6-yl)pyrazine-2-carboxamide]
500 µM: MIC ([21]; 24h incubation) | MIC ([21]; 48h incubation)
> 500 µM: MIC ([2]; 24h incubation) | MIC ([2]; 48h incubation) | MIC ([3]; 24h incubation) | MIC ([3]; 48h incubation) | MIC ([4]; 24h incubation) | MIC ([4]; 48h incubation) | MIC ([5]; 24h incubation) | MIC ([5]; 48h incubation) | MIC ([8]; 24h incubation) | MIC ([8]; 48h incubation) | MIC ([11]; 24h incubation) | MIC ([11]; 48h incubation) | MIC ([14]; 24h incubation) | MIC ([14]; 48h incubation) | MIC ([17]; 24h incubation) | MIC ([17]; 48h incubation) | MIC ([18]; 72h incubation) | MIC ([18]; 120h incubation) | MIC ([19]; 24h incubation) | MIC ([19]; 48h incubation) | MIC ([20]; 24h incubation) | MIC ([20]; 48h incubation) | MIC ([23]; 24h incubation) | MIC ([23]; 48h incubation) | MIC ([24]; 24h incubation) | MIC ([24]; 48h incubation)
> 1000 µM: IC50 (HepG2 cell line)
250 µM: MIC ([16]; 24 h) | MIC ([16]; 48 h)
108 µM: MIC [9]
27 µM: MIC [1, 25] | MIC [10] | MIC [12]
13.5 µM: MIC [7]
250.9 to 252.4 °C: melting point
86.4 µM: MIC [6] | MIC [13] | MIC [15]
125 µM: MIC ([22]; 24h incubation) | MIC ([22]; 48h incubation)

O=C(Nc1ccc2c(c1)B(O)OC2)c1cnc2ccccc2n1 [Compound 17, N-(1-hydroxy-1,3-dihydrobenzo[c][1,2]oxaborol-6-yl)quinoxaline-2-carboxamide]
25.6 µM: MIC [12]
> 250 µM: IC50 (HepG2 cell line)
> 500 µM: MIC ([2]; 24h incubation) | MIC ([2]; 48h incubation) | MIC ([3]; 24h incubation) | MIC ([3]; 48h incubation) | MIC ([4]; 24h incubation) | MIC ([4]; 48h incubation) | MIC ([5]; 24h incubation) | MIC ([5]; 48h incubation) | MIC ([8]; 24h incubation) | MIC ([8]; 48h incubation) | MIC ([11]; 24h incubation) | MIC ([11]; 48h incubation) | MIC ([14]; 24h incubation) | MIC ([14]; 48h incubation) | MIC ([16]; 24 h) | MIC ([16]; 48 h) | MIC ([17]; 24h incubation) | MIC ([17]; 48h incubation) | MIC ([18]; 72h incubation) | MIC ([18]; 120h incubation) | MIC ([19]; 24h incubation) | MIC ([19]; 48h incubation) | MIC ([20]; 24h incubation) | MIC ([20]; 48h incubation) | MIC ([21]; 24h incubation) | MIC ([21]; 48h incubation) | MIC ([22]; 24h incubation) | MIC ([22]; 48h incubation) | MIC ([23]; 24h incubation) | MIC ([23]; 48h incubation) | MIC ([24]; 24h incubation) | MIC ([24]; 48h incubation)
41 µM: MIC [6] | MIC [15]
> 819 µM: MIC [9]
12.8 µM: MIC [1, 25] | MIC [7]
20.5 µM: MIC [13]
102 µM: MIC [10]
non-toxic: toxicity to HepG2 up to highest tested concentration (HepG2 cell line; tested up to 500 µM (2, 3), 250 µM (12, 17), 100 µM (6, 7, 11) because of solubility)

O=C(Nc1ccc2c(c1)B(O)OC2)c1ccccn1 [Compound 10, N-(1-hydroxy-1,3-dihydrobenzo[c][1,2]oxaborol-6-yl)picolinamide]
183.7 to 186.1 °C: melting point
250 µM: MIC ([16]; 24 h) | MIC ([16]; 48 h) | MIC ([22]; 24h incubation) | MIC ([22]; 48h incubation)
< 62 µM: MIC [1, 25] | MIC [9] | MIC [10] | MIC [13]
500 µM: MIC ([21]; 24h incubation) | MIC ([21]; 48h incubation)
98.4 µM: MIC [6] | MIC [15]
61.5 µM: MIC ([1]; read-out: MIC M. smeg., Middlebrook 7H9, resazurin)
> 500 µM: MIC ([2]; 24h incubation) | MIC ([2]; 48h incubation) | MIC ([3]; 24h incubation) | MIC ([3]; 48h incubation) | MIC ([4]; 24h incubation) | MIC ([4]; 48h incubation) | MIC ([5]; 24h incubation) | MIC ([5]; 48h incubation) | MIC ([8]; 24h incubation) | MIC ([8]; 48h incubation) | MIC ([11]; 24h incubation) | MIC ([11]; 48h incubation) | MIC ([14]; 24h incubation) | MIC ([14]; 48h incubation) | MIC ([17]; 24h incubation) | MIC ([17]; 48h incubation) | MIC ([18]; 72h incubation) | MIC ([18]; 120h incubation) | MIC ([19]; 24h incubation) | MIC ([19]; 48h incubation) | MIC ([20]; 24h incubation) | MIC ([20]; 48h incubation) | MIC ([23]; 24h incubation) | MIC ([23]; 48h incubation) | MIC ([24]; 24h incubation) | MIC ([24]; 48h incubation)
> 1000 µM: IC50 (HepG2 cell line)
